Blank lines part the entries; values can stand above or below the molecule they belong to.
Legend:
Assay type in all cases: cell-based
Panc-1 cells [1] = assay: MTT cell viability assay, Panc-1
Experimental: (§1) MTT (3-(4,5-dimethylthiazol-2-yl)-2,5-diphenyltetrazolium) assay was performed to determine the effect of AS-10 on cancer cell viability (Plano et al., 2016, J. Med. Chem. 1946-1959; Alcolea et al., 2012, Eur. J. Med. Chem. 113:134-144; Kumar et al., 2014, Eur. J. Med. Chem. 81:267-276). Briefly, 3×10^3 cells were treated with different concentrations of AS-10 in triplicate in a 96-well plate for different time points. MTT solution (20 μL of 5.0 mg/mL solution) was added to each well, three hours prior to termination time point and incubated at 37° C. Resultant formazan crystals, at termination time point, were dissolved in 50 μL DMSO. The plate was subjected to a 96-well multiscanner (Dynex Technologies, MRX Revelation; Chantilly, Va., USA) for measuring the optical densities at 570 nm and 630 nm. IC50 values were determined by performing non-linear regression using Graphpad Prism software.
To test the anti-cancer activity of AS-10 in pancreatic cancer (PC) cell lines, a MTT assay was performed. PC cell lines, Panc-1 and BxPC3, were treated with AS-10 at different doses at different time points (24, 48, and 72 h). Resulting cells were subjected to MTT cell viability assay. […] Panc-1 cells were treated with different doses of AS-10 for 48 h. After 48 h, live cells were counted and plated in a new petri dish. Cells were allowed to form colonies for 17 days. At the end of 17 days the colonies were counted and compared to the untreated cells.

Lung cancer cells (A549) = assay: MTT cell viability assay, A549; details: A549, 48 h (FIG. 5C); acetate functionality removed
Experimental: as §1

pancreatic cancer cells = assay: MTT cell viability assay, pancreatic cancer (PC) cells; details: screening
Experimental: as §1

LNCaP cells = assay: MTT cell viability test, LNCaP
Experimental: as §1

Panc-1 cells [2] = assay: Western blot analysis of Panc-1 lysates; details: Panc-1, 48 h; low dose AS-10 2.5 μM, gemcitabine 50 μM
Experimental: Whole-cell lysates were made by subjecting AS-10 treated Panc-1 cells to RIPA lysis buffer (Thermo Scientific, USA) containing protease (Roche, USA) and phosphatase inhibitor cocktails (Sigma-Aldrich, USA) (Plano et al., 2016, J. Med. Chem. 1946-1959). Lysates were spun at 15,000 rpm for 10 minutes. Resulting supernatant was stored at −80° C. until use. NuPAGE gel 4-12% (Life Technologies, Carlsbad, Calif.) was used to resolve the lysates, followed by electro-transfer to PVDF membrane. After the transfer membrane was blocked with 5% non-fat milk and probed with different antibodies. Protein of interest were detected by using enhanced Chemiluminescent reagent (Life technologies, USA). Blots were stripped using Restore Western blot stripping buffer (Thermo Scientific, USA) to save time and samples.

Panc-1 cells [3] = assay: Live/dead assay with calcein-AM and ethidium bromide; details: Panc-1, 48 h; AS-10 2.5 μM, gemcitabine 50 μM
Experimental: To determine the dead cell population, we used LIVE/DEAD Viability/Cytotoxicity Kit (L3224, Life technologies, USA). Panc-1 cells were treated with either DMSO, gemcitabine (50 μM), or AS-10 (2.5 μM) or in combination for 48 h. Live and dead cells were determined by subjecting treated cells to LIVE/DEAD Viability/Cytotoxicity Kit (Plano et al., 2016, J. Med. Chem. 1946-1959). […] While ethidium homodimer-1 can only enter cells who have lost their plasma membrane integrity or dead cells and fluorescents red. Stained cells were visualized using a fluorescence microscope (Zeiss—Axio Scope.A1) with a 20× objective lens. Percentage values of live and dead cells were calculated.

Panc-1 cells [4] = assay: Muse Live/dead Annexin V assay; details: Panc-1, 48 h; AS-10 2.5 μM, gemcitabine 50 μM
Experimental: Muse Annexin V & Dead Cell kit was used to determine the apoptosis cells in AS-10 treated Panc-1 cells (Plano et al., 2016, J. Med. Chem. 1946-1959). The Muse Annexin V & Dead cell assay contains Annexin V to detect phosphatidylserine (PS) on the outer surface of cells. The kit also contains a dead cell marker, 7-amino-actinomycin D (7-AAD). […] In brief, Panc-1 (1.5×10^5) cells were treated with a given dose of AS-10 or DMSO for appropriate time (0, 6, 12, 24, 36, or 48 h). Both floating cells as well as adherent cells were collected and subjected for Annexin V staining using Muse Annexin V & Dead Cell kit with Muse cell analyzer (EMD Millipore, Billerica, Mass., USA). The obtained data were analyzed using Muse 1.4 software.

SMILES: CC(=O)Oc1ccccc1C(=O)/N=C1\SCCN1C(=O)c1ccccc1OC(C)=O [ASD-123, 2-((3-(2-acetoxybenzoyl)-1,3-thiazolidin-2-ylidene)carbamoyl)phenyl acetate]
potency compared to AS-10 (Panc-1 cells [1]; Panc-1, 48 h (FIG. 5B), Se replaced by S): significant loss in the potency

SMILES: O=C(/N=C1\[Se]CCN1C(=O)c1ccccc1)c1ccccc1 [ASD-171, N-(3-benzoyl-1,3-selenazolidin-2-ylidene)benzamide]
potency compared to AS-10 (Lung cancer cells (A549)): significant loss in the potency

EC50 range, growth inhibition (comparison) (LNCaP cells): millimolar range
SMILES: CC(=O)Oc1ccccc1C(=O)O [aspirin, reference compound]
effect on PC cell lines at doses similar to AS-10 (pancreatic cancer cells): did not have any effects

SMILES: Nc1ccn([C@@H]2O[C@H](CO)[C@@H](O)C2(F)F)c(=O)n1 [gemcitabine, reference compound]
PARP cleavage (Panc-1 cells [2]): no effect on PARP cleavage
dead cells (Panc-1 cells [3]): ~10%
response of Panc-1 cells to treatment (Panc-1 cells [1]; highest tested dose 500 μM, 48 h): resistant
total apoptotic cells (Panc-1 cells [4]): ~25%

Reference: patent US10287259B2, “Selenazolidine and thiazolidine compounds for treating cancer and other diseases” (The Penn State Research Foundation, priority 2016, dated 2019)
